In ChEMBL document CHEMBL1201862, “PubChem BioAssay data set” (2004) one finds IC50, AC50 and EC50 data, which are given here for four compounds.

In one test the target is T1, Leucine aminopeptidase (Plasmodium falciparum 3D7, UniProt Q8IL11).
T1 sequence (Q8IL11 whole entry): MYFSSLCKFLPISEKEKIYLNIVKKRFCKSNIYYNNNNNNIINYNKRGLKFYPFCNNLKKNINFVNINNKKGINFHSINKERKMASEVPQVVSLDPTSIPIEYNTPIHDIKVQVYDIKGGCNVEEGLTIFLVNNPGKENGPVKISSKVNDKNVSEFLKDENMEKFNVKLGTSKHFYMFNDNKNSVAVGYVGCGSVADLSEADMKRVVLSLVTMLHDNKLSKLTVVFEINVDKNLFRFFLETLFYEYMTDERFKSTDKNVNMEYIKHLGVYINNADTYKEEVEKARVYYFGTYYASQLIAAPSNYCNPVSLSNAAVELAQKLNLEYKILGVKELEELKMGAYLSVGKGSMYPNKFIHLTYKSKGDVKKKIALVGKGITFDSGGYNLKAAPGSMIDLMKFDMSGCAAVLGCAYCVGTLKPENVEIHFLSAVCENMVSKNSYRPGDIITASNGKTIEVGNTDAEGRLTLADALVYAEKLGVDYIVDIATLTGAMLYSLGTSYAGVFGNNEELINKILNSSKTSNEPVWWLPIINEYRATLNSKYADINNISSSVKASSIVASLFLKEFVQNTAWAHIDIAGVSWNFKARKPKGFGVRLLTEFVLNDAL
The test is described as follows: P. falciparum M17LAP inhibitors, primary screen, biochemical, fluorogenic H-Leu-NHMec substrate, 1536-well (AID 1619). The test is classed as functional.

Test [1] deals with Ras and Rab interactor 1/Tyrosine-protein kinase ABL1 (Homo sapiens, UniProt P00519+Q13671). The test is classed as functional.
Ras and Rab interactor 1/Tyrosine-protein kinase ABL1, sequence (P00519 whole entry): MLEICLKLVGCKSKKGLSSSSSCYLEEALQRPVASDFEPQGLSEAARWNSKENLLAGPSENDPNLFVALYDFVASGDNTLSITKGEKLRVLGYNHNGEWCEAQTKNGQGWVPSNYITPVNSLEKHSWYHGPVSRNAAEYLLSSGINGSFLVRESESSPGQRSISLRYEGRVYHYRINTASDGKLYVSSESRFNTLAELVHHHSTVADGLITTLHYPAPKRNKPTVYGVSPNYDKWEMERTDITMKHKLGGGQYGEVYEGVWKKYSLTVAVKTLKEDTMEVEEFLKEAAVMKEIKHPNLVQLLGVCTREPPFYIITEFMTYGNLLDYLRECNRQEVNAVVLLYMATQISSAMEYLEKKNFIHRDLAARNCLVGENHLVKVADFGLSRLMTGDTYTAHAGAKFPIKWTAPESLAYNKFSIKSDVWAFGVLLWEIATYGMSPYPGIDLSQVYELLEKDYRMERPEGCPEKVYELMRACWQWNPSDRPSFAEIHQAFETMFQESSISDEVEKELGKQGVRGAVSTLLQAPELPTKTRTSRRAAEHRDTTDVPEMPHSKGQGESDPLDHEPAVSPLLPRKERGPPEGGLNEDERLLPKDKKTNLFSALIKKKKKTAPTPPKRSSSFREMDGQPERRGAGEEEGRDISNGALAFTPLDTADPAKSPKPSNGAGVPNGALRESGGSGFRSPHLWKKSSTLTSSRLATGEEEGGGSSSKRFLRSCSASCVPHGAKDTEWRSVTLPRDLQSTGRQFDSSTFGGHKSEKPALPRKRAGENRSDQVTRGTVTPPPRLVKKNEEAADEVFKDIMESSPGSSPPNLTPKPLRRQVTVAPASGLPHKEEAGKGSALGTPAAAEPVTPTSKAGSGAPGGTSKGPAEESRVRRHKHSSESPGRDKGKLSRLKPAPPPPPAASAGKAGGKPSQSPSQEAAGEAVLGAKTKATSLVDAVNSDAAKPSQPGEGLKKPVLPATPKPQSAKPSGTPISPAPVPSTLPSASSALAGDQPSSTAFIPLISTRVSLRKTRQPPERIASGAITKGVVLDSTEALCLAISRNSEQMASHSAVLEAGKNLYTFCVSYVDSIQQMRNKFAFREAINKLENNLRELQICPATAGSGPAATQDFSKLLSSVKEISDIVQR
Ras and Rab interactor 1/Tyrosine-protein kinase ABL1, sequence (Q13671 whole entry): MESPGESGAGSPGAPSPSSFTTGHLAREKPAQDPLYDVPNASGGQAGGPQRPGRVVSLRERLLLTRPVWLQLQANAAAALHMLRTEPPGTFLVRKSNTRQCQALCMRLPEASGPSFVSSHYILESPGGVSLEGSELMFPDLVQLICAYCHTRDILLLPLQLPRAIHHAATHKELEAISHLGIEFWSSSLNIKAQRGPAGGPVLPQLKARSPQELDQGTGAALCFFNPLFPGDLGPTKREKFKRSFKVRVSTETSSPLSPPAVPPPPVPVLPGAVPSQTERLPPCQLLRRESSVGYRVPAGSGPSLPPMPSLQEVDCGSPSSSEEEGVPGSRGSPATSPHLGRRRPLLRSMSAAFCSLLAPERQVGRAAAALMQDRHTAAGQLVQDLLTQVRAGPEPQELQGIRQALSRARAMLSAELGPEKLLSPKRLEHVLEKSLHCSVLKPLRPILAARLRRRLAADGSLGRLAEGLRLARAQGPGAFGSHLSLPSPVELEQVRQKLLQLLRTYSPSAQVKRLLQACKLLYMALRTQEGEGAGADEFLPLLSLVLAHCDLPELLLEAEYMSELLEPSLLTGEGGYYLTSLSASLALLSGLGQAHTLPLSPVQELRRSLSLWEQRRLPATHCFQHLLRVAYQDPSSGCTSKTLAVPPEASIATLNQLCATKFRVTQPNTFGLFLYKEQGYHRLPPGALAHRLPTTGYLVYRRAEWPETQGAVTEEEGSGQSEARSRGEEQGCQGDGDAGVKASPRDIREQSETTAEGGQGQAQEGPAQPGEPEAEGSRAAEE
In test [2] the target is Mitochondrial peptide methionine sulfoxide reductase (Bos taurus, UniProt P54149). The test is classed as functional.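 Further: absorbance read-out, biochemical high-throughput dose-response screen for MsrA inhibitors, confirmatory; recombinant bovine MsrA coupled to E. coli TrxB with NADPH and selenocystamine; potency is for inhibitors of MsrA activity on DMSO substrate.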
Mitochondrial peptide methionine sulfoxide reductase, sequence (P54149 whole entry): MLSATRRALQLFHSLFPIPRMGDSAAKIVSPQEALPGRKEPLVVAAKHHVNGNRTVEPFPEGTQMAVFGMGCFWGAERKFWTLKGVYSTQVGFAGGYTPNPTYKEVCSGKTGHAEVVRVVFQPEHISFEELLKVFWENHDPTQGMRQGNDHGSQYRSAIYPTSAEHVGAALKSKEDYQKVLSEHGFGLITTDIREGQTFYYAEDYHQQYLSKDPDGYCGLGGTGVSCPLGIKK
Test [3] deals with Aryl hydrocarbon receptor (Homo sapiens, UniProt P35869). Conditions: Potency.
Aryl hydrocarbon receptor, sequence (P35869 whole entry): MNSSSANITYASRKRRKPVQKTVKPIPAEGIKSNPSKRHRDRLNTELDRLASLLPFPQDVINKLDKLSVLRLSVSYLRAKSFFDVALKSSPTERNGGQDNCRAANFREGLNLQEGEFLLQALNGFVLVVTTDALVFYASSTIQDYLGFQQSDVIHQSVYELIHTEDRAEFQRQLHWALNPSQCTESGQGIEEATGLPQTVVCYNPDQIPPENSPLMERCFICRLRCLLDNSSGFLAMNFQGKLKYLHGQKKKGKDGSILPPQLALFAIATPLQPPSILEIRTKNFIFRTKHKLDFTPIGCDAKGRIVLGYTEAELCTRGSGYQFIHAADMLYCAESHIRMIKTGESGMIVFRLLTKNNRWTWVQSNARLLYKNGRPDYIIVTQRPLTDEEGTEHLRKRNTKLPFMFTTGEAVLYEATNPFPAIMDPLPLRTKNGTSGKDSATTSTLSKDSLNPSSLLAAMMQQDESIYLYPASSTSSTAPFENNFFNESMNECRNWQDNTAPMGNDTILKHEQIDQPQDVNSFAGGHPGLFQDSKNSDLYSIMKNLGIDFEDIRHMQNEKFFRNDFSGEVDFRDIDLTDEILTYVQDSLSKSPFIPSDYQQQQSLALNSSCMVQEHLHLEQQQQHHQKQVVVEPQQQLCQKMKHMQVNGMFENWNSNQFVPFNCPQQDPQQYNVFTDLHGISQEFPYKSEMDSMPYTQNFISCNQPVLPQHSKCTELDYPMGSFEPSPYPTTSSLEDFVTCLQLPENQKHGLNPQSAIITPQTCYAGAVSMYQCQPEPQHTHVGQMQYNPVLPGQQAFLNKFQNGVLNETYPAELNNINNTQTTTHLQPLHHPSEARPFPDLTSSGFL
Test [4] has as its target V-type proton ATPase subunit c' (Saccharomyces cerevisiae S288c, UniProt P32842). Put plainly: Dose Response of Small Molecules that Regulate V-ATPase Proton Transport in Yeast using pHLuorin, Cherry Pick 2. The test is classed as functional. Conditions: read-out: EC50_MICROM.

Structures are written as SMILES. Active and inactive are the calls of the source.
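Wherever AC50 is given: confirmatory quantitative high-throughput screen measuring activation of the AhR signaling pathway.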

V-type proton ATPase subunit c', sequence (P32842 whole entry): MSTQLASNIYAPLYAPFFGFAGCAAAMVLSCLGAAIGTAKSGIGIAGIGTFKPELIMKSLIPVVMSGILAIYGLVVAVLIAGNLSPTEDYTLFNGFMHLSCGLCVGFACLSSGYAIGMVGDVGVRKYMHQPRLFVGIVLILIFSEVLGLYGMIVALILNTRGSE

For the compound `Cc1ccc(-n2c(SCC(=O)N3Cc4ccccc4CC3C(=O)O)nnc2-c2cccnc2)c(C)c1` (stereo not given), the 50% inhibitory concentration (IC50) was 3.12 µM (active) at Leucine aminopeptidase and 24.9 µM (inactive) in test [1]. Regarding `N#Cc1c(-n2cccc2/C=N/O)sc2c1CCCC2`, in test [2], the IC50 is 155 µM (inactive).

As for `CC(C)N1C(=O)c2ccccc2NS1(=O)=O` [BENTAZON], the half-maximal activity concentration (AC50) in test [3] is 79.4 µM (inconclusive). Consider `O=C1C=CC(=Nc2ccc3c(c2)Cc2cc(F)ccc2-3)O1`, for which the EC50 in test [4] was 7.26 µM (active).

What is called IC50 is the point on the concentration scale where inhibition reaches its midpoint. By AC50 is commonly meant the concentration giving half of the maximal activity seen.
